Here are results for ten compounds from the SangsterLogP compilation.

This data set can be described thus: method code SF-HPLC, from DOI: 10.1002/jps.2600740210, PMID: 3989684. Conditions: pH 7.7.

Turning to `Nc1ccc2nc(S(N)(=O)=O)sc2c1`, the logD (commonly the decadic logarithm of the distribution of all forms, ionised or not, between an organic phase and buffer at a given pH) turned out to be 0.38.

For the compound `CCOc1ccc2nc(S(N)(=O)=O)sc2c1`, the logD was 1.91. On to `NS(=O)(=O)c1nc2c(Cl)cc(Cl)cc2s1`, for which the log distribution coefficient (logD) worked out at 2.3. Consider `CC(=O)Nc1ccc2nc(S(N)(=O)=O)sc2c1`, for which the log distribution coefficient (logD) turned out to be 0.68.

For `NS(=O)(=O)c1nc2ccc(OCc3ccccc3)cc2s1`, the logD was determined as 3.06. `NS(=O)(=O)c1nc2ccc(O)cc2s1` had a logD of 0.92. With `NS(=O)(=O)c1nc2ccc(OCCO)cc2s1`, the logD was 0.38. Consider `NS(=O)(=O)c1nc2ccccc2s1`, for which the logD stood at 1.19.

Compound `NS(=O)(=O)c1nc2ccc([N+](=O)[O-])cc2s1` returned a pH-dependent lipophilicity (logD) of 0.9.

In the case of `NS(=O)(=O)c1nc2ccc(Cl)cc2s1`, the logD is 1.86.
